Reference: patent US10195284B2, “Compositions and methods for controlled localized delivery of bone forming therapeutic agents” (University of Rochester, priority 2013, dated 2019)
Several values for one entry are separate records, joined by “and”; a condition that tells them apart may be missing. Equal entries are not always repeated. Where two headings read alike, the source gives them in different places. Ends that are not written are not given here.

Legend:
[1] = target: T1, TRAP protein (Homo sapiens, UniProt P13686); test: SPR affinity of peptide-functionalized polymers for TRAP, initial rate analysis of sensorgrams; type: binding; details: for SPR binding response to TRAP: sensorgrams
T1 sequence (P13686 22-325): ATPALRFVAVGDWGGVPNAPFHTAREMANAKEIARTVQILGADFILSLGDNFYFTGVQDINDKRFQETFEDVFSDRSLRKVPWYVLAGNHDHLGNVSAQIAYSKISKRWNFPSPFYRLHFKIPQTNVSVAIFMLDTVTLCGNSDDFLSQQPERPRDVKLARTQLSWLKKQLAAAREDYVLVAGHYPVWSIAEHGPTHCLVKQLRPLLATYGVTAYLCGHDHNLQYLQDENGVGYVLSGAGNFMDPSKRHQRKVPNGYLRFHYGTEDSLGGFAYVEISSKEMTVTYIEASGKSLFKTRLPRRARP
Procedure: Surface plasmon resonance (SPR) is used to assess the affinity of peptide-functionalized polymers for TRAP. Series S Sensor CM5 Chips are functionalized with TRAP via 1-ethyl-3-(3-dimethylaminopropyl) carbodiimide (EDC)/N-hydroxysuccinimide (NHS) chemistry. Briefly, the chips, which have a carboxymethylated dextran functionality, are activated through the introduction of NHS and EDC. After activation, TRAP protein, at 30 μg/mL in sodium acetate (pH=5), is introduced to the surface. Ethanolamine-hydrochloric acid is used to quench unreacted carboxysuccinimide groups. Polymers are dissolved in running buffer of PBS with 0.005% Tween20. Polymers are analyzed in duplicate at different concentrations. Surface regeneration is achieved using 1-10 mM NaOH solutions as necessary. […] Sensorgram data (FIG. 22) are exported from the SPR evaluation software after smoothing data of injection events and analyzed. Response units (RU) are converted into concentrations for rate analysis using the equation: S[M]=RU/60000 MW
Where S is the concentration of polymer bound to the TRAP-functionalized surface and MW is the molecular weight of the polymer. The binding rates of polymers to TRAP are determined in the initial linear portion of association, within two seconds of the start of injection. The reciprocals of binding rates are plotted against the reciprocals of polymer concentrations to obtain a linear relationship, generalized in the equation: Vi^−1=KDSi^−1Vm^−1Vm^−1
Where Vi is the binding rate for each i concentration of polymer and Vm is the maximum binding rate of polymer to TRAP. This relationship identifies the KD for each polymer (Table 4). Only TBP-functionalized polymers show affinity for TRAP (FIG. 22), as control (SCP-functionalized and PEG) polymer show no positive binding response (FIG. 23A through FIG. 23C).

[2] = target: T2, tartrate-resistant acid phosphatase (TRAP) (Homo sapiens, UniProt P13686); test: Surface plasmon resonance (SPR) affinity of peptides and peptide-functionalized polymers for TRAP, binding-curve fit
T2 sequence (P13686 22-325): T1 sequence (P13686 22-325)
Procedure: Surface plasmon resonance (SPR) is used to assess the affinity of peptides for TRAP. Series S Sensor CM5 Chips are functionalized with TRAP via 1-ethyl-3-(3-dimethylaminopropyl) carbodiimide (EDC)/N-hydroxysuccinimide (NHS) chemistry. Briefly, the chips, which have a carboxymethylated dextran functionality, are activated through the introduction of NHS and EDC. After activation, TRAP protein, at 30 μg/mL in sodium acetate (pH=5), is introduced to the surface. Ethanolamine-hydrochloric acid is used to quench unreacted carboxysuccinimide groups. Peptides are dissolved in running buffer of PBS with 0.005% Tween20. Peptides are analyzed in duplicate at different concentrations. Surface regeneration is achieved using a combination of 1 and 2 M NaCl and 1-50 mM NaOH solutions as necessary.
In SPR, the binding of any molecules to the surface of the sensor chips results in a change in the angle of incident light reflection, allowing highly-sensitive detection of miniscule amounts of ligand binding to the surface. Target affinity can be determined by introducing increasing concentrations of the ligand to the surface. Higher concentrations of samples elicited larger responses. The binding response was measured and plotted against concentration (FIG. 4), allowing for a fitting of the data by a binding curve. From this fitting, values such as KD can be determined. Through this technique, the affinity of TBP and SCP was analyzed. […] While not wishing to be bound by any particular theory, a possible, but improbable, cause for difference in affinity is the inclusion of the glycine residue on the carboxylic end of the synthesized peptide used herein. Despite this addition, the order of the original sequence is preserved, and glycine is a small, uncharged and nonpolar amino acid. […] In prior studies using phage display, five copies of the peptide are present and exposed (Sheu et al., 2002, Journal of Bone and Mineral Research, 17(5):915-922). Therefore, part of the higher affinity seen in the phage display experiments could be due to the multivalent nature of the peptide on the phage.
Quantitative analyses of peptide and polymer affinities were performed using SPR. […] The binding of any molecules to the surface of the sensor chips results in a change in the angle of incident light reflection, allowing highly-sensitive detection of miniscule amounts of ligand binding to the surface. Target affinity can be determined by introduction of increasing concentrations of the molecule to the surface (FIG. 38A and FIG. 38B). Typically higher concentrations of samples elicited larger responses, with a larger response from polymers at lower concentrations in comparison to the TBP alone. […] Furthermore, polymer samples required the application of regeneration buffers, ranging from a mild buffer of 500 mM NaCl to a harsher buffer of 5 mM NaOH, to return the signal to previous levels. The binding response is measured and plotted against concentration, allowing for a fitting of the data by a binding curve. From this fitting, values such as the dissociation constant (KD) value can be determined. Through this technique, the affinity of peptides and peptide-functionalized polymers were analyzed. […] However, inclusion of peptide functionalities results in substantial increases in TRAP affinities (KD˜7.1-21 μM). […] While not wishing to be bound by any particular theory, a possible, but improbable, cause for difference in affinity is the inclusion of the glycine residue on the carboxylic end of the synthesized peptide used herein. Despite this addition the order of the original sequence is preserved and glycine is a small, uncharged and nonpolar amino acid. […] In prior studies using phage display, five copies of the peptide are present and exposed (Sheu et al., 2002, Journal of Bone and Mineral Research, 17(5): 915-922). Therefore part of the higher affinity seen in the phage display experiments could be due to the multivalent nature of the peptide on the phage. […]

[3] = test system: Mouse osteoblasts (MC3T3E1); test: Cytocompatibility of peptide-functionalized polymers, Picogreen DNA assay; type: cell-based; details: 0.1 mM and 10 mM, 7 days, normalized to media alone
Procedure: Mouse osteoblasts (MC3T3E1) were maintained in alpha minimum essential media (α-MEM, Gibco), containing 10% fetal bovine serum (FBS, Invitrogen) and 1% penicillin-streptomycin-fungizone at 37° C. and 5% CO2. Cells were utilized at passage 5. To assess the cytocompatibility of peptide-functionalized polymers, cells were seeded in a 48 well plates at 10,000 cells/well and allowed to adhere overnight. Cells were treated with media alone or with peptide or peptide-functionalized polymers (0.1 mM and 10 mM) for 7 days, with media exchanges every two days. These concentrations employed are far higher than expected to be necessary for future uses and allowed for isolation of the maximum tolerated doses in vitro. After seven days of exposure, cells were washed, lysed by sonication, and analyzed for DNA concentration using the Picogreen Assay (Invitrogen). Results were normalized to cells treated with media alone.

[4] = test system: β-catenin and ALP in osteoblasts; test: BIO treatment of osteoblasts, β-catenin levels and ALP production; type: cell-based; details: 24 hours treatment
Procedure: Data represents mean±standard deviation for 3 trials. *p<0.05 versus control, #p<0.05 versus 2 μM BIO (n=5).
Several BIO-releasing polymers that are the correct molecular weight to enhance circulation time and avoid renal clearance have been successfully synthesized. […] Finally, released BIO biological activity is confirmed versus the free, unconjugated molecule and rescue of β-catenin signaling in osteoblasts is verified.

[5] = Vougogiannopoulou et al., 2008; cited from earlier work
[6] = Bone resorption pit binding of fluorescently labeled peptides, confocal imaging; parameters: species or system human; details: fluorescently labeled peptide, overnight incubation
Procedure: Equal concentrations of fluorescently labeled TBP and SCP are prepared in 1× phosphate-buffered saline (PBS). Bone wafers are cut from cortical bone obtained from the femur of a human donor cadaver and incubated in peptide solutions overnight, washed twice with 1×PBS, and then visualized via confocal imaging. Stacked sections are compressed into 2D images to allow for qualitative analysis as in FIG. 3A through FIG. 3D. […] Qualitatively, no binding of SCP is detected (FIG. 3D).

[7] = test system: areas with cathepsin K and osteoclast activity at calvarial defect; test: Co-localization of polymers to actively remodeling bone, two-photon microscopy of cranial window defect; type: in vivo, mice; details: 5 mg kg^−1 intraperitoneal, imaged thirty minutes later
Procedure: A thinned-skull cranial window is produced in mice as previously described (Yang et al., 2010, Nat Protoc 5:201). Briefly, a 500-μm diameter defect is made in the skull of mice and covered with a glass coverslip. The night before imaging, mice are injected intraperitoneal with 100 μL reconstituted cathepsin K probe in 1×PBS, prepared according to the manufacturer's protocol. At times of 3 and 8 days post-procedure, 5 mg kg^−1 of fluorescently-labeled pTBP, pSCP, or PEG in saline is injected intraperitoneal and imaged thirty minutes later using two-photon microscopy (Olympus Fluoview). Cathepsin K, a cysteine protease, is secreted by osteoclasts; therefore, TRAP is expected to be present in areas with cathepsin K activity. […] Bone drilling defects have been used previously to investigate osteoclast activity, with osteoclast accumulation at the defect evident from positive TRAP staining (Tanaka et al., 2010, J Biomed Mater Res, 93A(2): 469-474). […] Other live imaging modalities and sections of sacrificed mice are used to track biodistribution to other organs. Since the amino acid sequence of human, mouse, and rat TRAP is 89-94% homologous (Lamp and Drexler, 2000, Leukemia Lymphoma, 39(5-6): 477-484), it is probable that TBP-functionalized polymer therapeutic affinity to TRAP in mice can be translated into humans.

[8] = Bone targeting of fluorescently labeled polymer therapeutics on osteoclast-resorbed bone wafers; type: binding, bovine
Procedure: Bovine cortical bone is cut into 5-mm square, 0.5-mm thick wafers using a low speed saw with a diamond wafering blade. Bone wafers are boiled in ddH2O for 15 minutes, placed in 96-well plates, sterilized in 70% ethanol for half an hour on each side, washed thrice in 1×PBS, and incubated in alpha minimum essential medium (α-MEM) for at least 1 hour at 37° C. before cell seeding.
Monocytes are freshly isolated from the spleens of mice, filtered twice with a 40 μm cell strainer, collected via centrifugation (5 minutes, 1000 rpm), and re-suspended in sterile filtered mouse red blood cell lysis buffer for 10 minutes at room temperature. After neutralizing lysis buffer with 1×PBS, monocytes are collected via centrifugation and washed in α-MEM containing 10% fetal bovine serum, 1% penicillin-streptomycin-fungizone, 1% GlutaMAX, and 1% non-essential amino acids before re-suspension in medium containing 100 ng mL^−1 M-CSF conditioned medium (Takeshita et al., 2000, J Bone Miner Res 15:1477). Monocytes are seeded in 96-well plates on the tissue culture surface or on prepared bovine cortical bone wafers at 2×10^5 cells well^−1 (1×10^6 cells mL^−1). After 3 days of incubation at 37° C. and 5% CO2, medium is supplemented with 1 ng mL^−1 receptor activator of nuclear factor κB ligand (RANKL) to induce osteoclast differentiation. […]

[9] = TRAP-functionalized CM5 chip, n = 2, Ave. ± StDev, read-out: KD

10% SCP (VPVGTLSYLKLTG) [reference compound]
SPR binding response to TRAP [1]: negative responses

10% TBP (TPLSYLKGLVTVG)
SPR binding response to TRAP [1]: positive response

10% peptide-functionalized polymer (TPLSYLKGLVTVG)
Kd [2, 9]: 12.7 µM
cytocompatibility / cytotoxic effects [3]: worst cytocompatibility of all polymers tested

20% SCP (VPVGTLSYLKLTG) [reference compound]
SPR binding response to TRAP [1]: negative responses

20% TBP (TPLSYLKGLVTVG)
Kd ([1]; initial rate analysis of SPR sensorgrams): 70 µM

20% peptide-functionalized polymer (TPLSYLKGLVTVG)
Kd [2, 9]: 7.5 µM

O=C1Nc2cc(Br)ccc2/C1=C1/Nc2ccccc2/C1=N\O [BIO, 6-bromoindirubin-3′-oxime]
ALP production ([4]; analyzed 7-days after treatment): increased
β-catenin levels ([4]; just after treatment): increased
water solubility [5]: poor water solubility

H-TPLSYLKGLVTVG [TBP]
Kd ([2]; binding-curve fit, read-out: KD for TRAP): ~200 µM and ~700 µM
Kd ([2]; read-out: affinity for TRAP measured with SPR): 795 µM
binding to bone resorption pits [6]: specific binding

TBP-functionalized polymer therapeutics (TPLSYLKGLVTVG)
colocalization with cathepsin K and osteoclast activity [7]: colocalize to areas with cathepsin K and osteoclast activity
localization to resorption pits ([8]; resorbed bone wafers, fluorescently labeled): localize to resorption pits
affinity for untreated bone ([8]; untreated bone wafers): No affinity

scrambled control peptide, VPVGTLSYLKLTG (SEQ ID NO: 2) (VPVGTLSYLKLTG-OH; also: methacrylamide introduced on amine end for polymer incorporation) [SCP, reference compound]
affinity for TRAP measured with SPR [2]: no affinity
KD for TRAP ([2]; binding-curve fit): did not enable fitting of a binding curve or calculations of affinity
binding to bone resorption pits [6]: no binding
